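Growth conditions: 96-well plates. Treatment: test compound, 48 hours, 5 concentrations. Analysis: linear interpolation between bracketing concentrations; unreached endpoints set to highest concentration. TGI is the concentration that stops growth completely.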
Assays:
Assay in all cases: NCI tumour cell line growth inhibition, 48 h
M19-MEL melanoma = tested on: M19-MEL melanoma
MALME-3M melanoma = tested on: MALME-3M melanoma
A498 renal = tested on: A498 renal
OVCAR-8 ovarian = tested on: OVCAR-8 ovarian
HOP-92 NSCLC = tested on: HOP-92 NSCLC
DMS 273 small cell lung = tested on: DMS 273 small cell lung
UO-31 renal = tested on: UO-31 renal
DMS 114 small cell lung = tested on: DMS 114 small cell lung
OVCAR-3 ovarian = tested on: OVCAR-3 ovarian
SK-MEL-5 melanoma = tested on: SK-MEL-5 melanoma
SN12K1 renal = tested on: SN12K1 renal
NCI-H23 lung = tested on: NCI-H23 lung
EKVX NSCLC = tested on: EKVX NSCLC
HOP-18 NSCLC = tested on: HOP-18 NSCLC
HOP-62 NSCLC = tested on: HOP-62 NSCLC
K-562 leukemia = tested on: K-562 leukemia
IGROV1 ovarian = tested on: IGROV1 ovarian
HCC-2998 colon = tested on: HCC-2998 colon
NCI-H226 lung = tested on: NCI-H226 lung
A549 NSCLC = tested on: A549 NSCLC
SK-OV-3 ovarian = tested on: SK-OV-3 ovarian
XF 498 CNS = tested on: XF 498 CNS
OVCAR-5 ovarian = tested on: OVCAR-5 ovarian
U251 CNS = tested on: U251 CNS
SN12C renal = tested on: SN12C renal
RXF 393 renal = tested on: RXF 393 renal
COLO 205 colon = tested on: COLO 205 colon
CCRF-CEM leukemia = tested on: CCRF-CEM leukemia
HT29 colon = tested on: HT29 colon
OVCAR-4 ovarian = tested on: OVCAR-4 ovarian
KM20L2 colon = tested on: KM20L2 colon
KM12 colon = tested on: KM12 colon
HCT-15 colon = tested on: HCT-15 colon
SNB-78 CNS = tested on: SNB-78 CNS
P388/ADR leukemia = tested on: P388/ADR leukemia
DLD-1 colon = tested on: DLD-1 colon
SNB-19 CNS = tested on: SNB-19 CNS
NCI-H460 lung = tested on: NCI-H460 lung
NCI-H522 lung = tested on: NCI-H522 lung
UACC-62 melanoma = tested on: UACC-62 melanoma
SF-295 CNS = tested on: SF-295 CNS
LOX IMVI melanoma = tested on: LOX IMVI melanoma
UACC-257 melanoma = tested on: UACC-257 melanoma
SW-620 colon = tested on: SW-620 colon
MOLT-4 leukemia = tested on: MOLT-4 leukemia
NCI/ADR-RES ovarian = tested on: NCI/ADR-RES ovarian
P388 leukemia = tested on: P388 leukemia
SK-MEL-28 melanoma = tested on: SK-MEL-28 melanoma
SF-268 CNS = tested on: SF-268 CNS
SK-MEL-2 melanoma = tested on: SK-MEL-2 melanoma
MCF7 breast = tested on: MCF7 breast
SF-539 CNS = tested on: SF-539 CNS
HL-60(TB) leukemia = tested on: HL-60(TB) leukemia
HCT-116 colon = tested on: HCT-116 colon
CAKI-1 renal = tested on: CAKI-1 renal
SNB-75 CNS = tested on: SNB-75 CNS
RPMI-8226 leukemia = tested on: RPMI-8226 leukemia
SR leukemia = tested on: SR leukemia
ACHN renal = tested on: ACHN renal
RXF-631 renal = tested on: RXF-631 renal
TK-10 renal = tested on: TK-10 renal
M14 melanoma = tested on: M14 melanoma
LXFL 529 NSCLC = tested on: LXFL 529 NSCLC
786-0 renal = tested on: 786-0 renal

Measured: TGI

COc1ccc2c(c1)CCCc1cn[nH]c1-2
> 100 µM: M19-MEL melanoma | MALME-3M melanoma | A498 renal | OVCAR-8 ovarian | HOP-92 NSCLC | DMS 273 small cell lung | UO-31 renal | DMS 114 small cell lung | OVCAR-3 ovarian | SK-MEL-5 melanoma | SN12K1 renal | NCI-H23 lung | EKVX NSCLC | HOP-18 NSCLC | HOP-62 NSCLC | K-562 leukemia | IGROV1 ovarian | HCC-2998 colon | NCI-H226 lung | A549 NSCLC | SK-OV-3 ovarian | XF 498 CNS | OVCAR-5 ovarian | U251 CNS | SN12C renal | RXF 393 renal | COLO 205 colon | CCRF-CEM leukemia | HT29 colon | OVCAR-4 ovarian | KM20L2 colon | KM12 colon | HCT-15 colon | SNB-78 CNS | P388/ADR leukemia | DLD-1 colon | SNB-19 CNS | NCI-H460 lung | NCI-H522 lung | UACC-62 melanoma | SF-295 CNS | LOX IMVI melanoma | UACC-257 melanoma | SW-620 colon | MOLT-4 leukemia | NCI/ADR-RES ovarian | P388 leukemia | SK-MEL-28 melanoma | SF-268 CNS | SK-MEL-2 melanoma | MCF7 breast | SF-539 CNS | HL-60(TB) leukemia | HCT-116 colon | CAKI-1 renal | SNB-75 CNS

CC(C(=O)O)c1cnn(-c2ccccc2)c1-n1cccc1 (stereo unspecified)
> 100 µM: M19-MEL melanoma | MALME-3M melanoma | A498 renal | OVCAR-8 ovarian | HOP-92 NSCLC | DMS 273 small cell lung | UO-31 renal | RPMI-8226 leukemia | OVCAR-3 ovarian | SK-MEL-5 melanoma | SN12K1 renal | NCI-H23 lung | EKVX NSCLC | HOP-18 NSCLC | HOP-62 NSCLC | K-562 leukemia | IGROV1 ovarian | HCC-2998 colon | NCI-H226 lung | A549 NSCLC | SK-OV-3 ovarian | XF 498 CNS | OVCAR-5 ovarian | U251 CNS | SN12C renal | RXF 393 renal | COLO 205 colon | CCRF-CEM leukemia | HT29 colon | OVCAR-4 ovarian | KM20L2 colon | KM12 colon | HCT-15 colon | SNB-78 CNS | P388/ADR leukemia | DLD-1 colon | SNB-19 CNS | NCI-H460 lung | NCI-H522 lung | UACC-62 melanoma | SF-295 CNS | LOX IMVI melanoma | UACC-257 melanoma | SW-620 colon | MOLT-4 leukemia | NCI/ADR-RES ovarian | P388 leukemia | SK-MEL-28 melanoma | SF-268 CNS | SK-MEL-2 melanoma | MCF7 breast | SF-539 CNS | HL-60(TB) leukemia | HCT-116 colon | CAKI-1 renal | SNB-75 CNS

NC1C2(CCCCCC2)NC(=O)C12CCCCCC2 (stereo unspecified)
> 100 µM: SR leukemia | MALME-3M melanoma | A498 renal | OVCAR-8 ovarian | HOP-92 NSCLC | DMS 273 small cell lung | UO-31 renal | DMS 114 small cell lung | OVCAR-3 ovarian | SK-MEL-5 melanoma | NCI-H23 lung | EKVX NSCLC | HOP-18 NSCLC | HOP-62 NSCLC | K-562 leukemia | IGROV1 ovarian | ACHN renal | RXF-631 renal | A549 NSCLC | SK-OV-3 ovarian | XF 498 CNS | OVCAR-5 ovarian | TK-10 renal | U251 CNS | M14 melanoma | SN12C renal | RXF 393 renal | LXFL 529 NSCLC | COLO 205 colon | CCRF-CEM leukemia | HT29 colon | OVCAR-4 ovarian | KM12 colon | HCT-15 colon | SNB-78 CNS | DLD-1 colon | SNB-19 CNS | NCI-H460 lung | NCI-H522 lung | UACC-62 melanoma | SF-295 CNS | LOX IMVI melanoma | UACC-257 melanoma | SW-620 colon | MOLT-4 leukemia | SK-MEL-28 melanoma | SF-268 CNS | SK-MEL-2 melanoma | SF-539 CNS | HL-60(TB) leukemia | HCT-116 colon | 786-0 renal | CAKI-1 renal | SNB-75 CNS

— PubChem BioAssay (NCI)
